“And” between values parts separate entries of the source, which are not always exact repeats. Equal entries are not always repeated.
Key:
[1] = tested on: Lmna G609G/G609G mouse; assay: Body weight of Lmna G609G/G609G mice (ratio, week 4 = 1); assay type: in vivo; settings: for body weight: IP injection
Source text: Fig. 3 In vivo favorable effect of SLC-D011. A Gross morphology of Lmna^G609G/G609G mice (10 weeks old) was ameliorated after injection with SLC-D011. At the same age, the experimental group (D011) of mice were larger than vehicle-injected control (Con) subjects regardless of gender. B, C SLC-D011 increases body weight B and extends life span C of Lmna^G609G/G609G progeria model mouse (Con: n = 8; SLC-D011: n = 8). Compared with 14.8 weeks of average (ave) life span with maximum (max) life span of 15.5 weeks, 20 mg/kg of intraperitoneal (i.p) injection (twice a week) of SLC-D011 could extend the life span upto 19 weeks (max = 21 weeks). Lmna^G609G/G609G mice were injected with SLC-D011 from age of 5-week old, *p < 0.05. D Gross morphology of SLC-D011 injected Lmna^G609G/+ mouse. […] E SLC-D011 increases body weights of Lmna^G609G/+ mice (Con: n = 10; SLC-D011: n = 11), *p < 0.05. F Favorable effect of SLC-D011 on life span of Lmna^G609G/+ mice. Compared with vehicle-injected control group (ave = 46.7 weeks and max = 48 weeks), SLC-D011 treatment obviously extended the average life span to 63 weeks (max = 64 weeks). The injection was started from 32 weeks old, **p < 0.001. “Con” means vehicle (a solvent composed of DMSO and PBS)-injected mouse group. TEXT PRINTED IN THE PICTURE: (C) D011: Kaplan-Meier survival curve in Lmna^G609G/G609G: Ave=19; Kaplan-Meier survival curve in Lmna^G609G/G609G: Max=21 | (F) D011: Kaplan-Meier survival curve in Lmna^G609G/+: Ave=63; Kaplan-Meier survival curve in Lmna^G609G/+: Max=64 DOUBTS OF THE COPYIST ABOUT THIS PICTURE: Panels C and F: the Ave/Max labels are not printed with a group name. They are assigned to D011 (solid curve) or Con (dashed curve) only by their position beside the curves. / Panel C Ave=14.8, Max=15.5 and panel F Ave=46.7, Max=48 stand beside the dashed Con curve. They are left out because Con is the control group, not a substance. / No unit is printed with the Ave/Max values. Only the axis reads Age (weeks).
Fig. 4 Oral administration of SLC-D011 suppresses premature aging features. A Gross morphology of SLC-D011-treated (D011) mice at 8 weeks old. Body size of treated mouse was apparently larger than that of the untreated control (Con) mouse. B Oral administration of SLC-D011 increases body weights of Lmna^G609G/G609G mice. Compared with untreated control group, body weight of treated mouse was increased by ~35%, *p < 0.05. C Oral administration of SLC-D011 extends the life span of Lmna^G609G/G609G mouse. SLC-D011 in monoolein-based solution was treated by oral gavage (50 mg/kg, daily) from 5 weeks old. […] E Grip test of Lmna^G609G/+ mice at 41-week-old was performed after administration of SLC-D011 for 6 weeks. The test was repeated 10 times for each mouse (n > 4), **p < 0.001. Data are presented as mean ± SD. F Electrocardiographic analysis of Lmna^G609G/+ mice (untreated: n = 4; SLC-D011: n = 4) and Lmna^+/+ mice (n = 3) after treatment with SLC-D011 for 6 weeks (unpaired t test). Heart rate is shown as beats per minute (bpm). G Dental abnormalities in Lmna^G609G/+ mice (untreated: n = 4; SLC-D011: n = 5) and Lmna^+/+ mice (n = 4). […] Lower incisors of Lmna^G609G transgenic mice grow toward the palate because of malocclusion. Oral administration of SLC-D011 for 6 weeks alleviates dental abnormalities. H Anti-aging effects of single treatment of SLC-D011 or lonafarnib were measured in HGPS patients-derived cells (AG11513, AG03199, AG11498, and AG03198, Coriell Cell Repositories). Single treatment of SLC-D011, compared to lonafarnib, reduced the expression of progerin but induced the expression of H3K9me3 and cyclin B1 in HGPS cells more effectively. HGPS patients-derived cells were treated with SLC-D011 (500 nM) or lonafarnib (500 nM) for 3 days. I Scheme of interaction between lamin A and progerin. SLC-D011 interrupts the interaction between lamin A and progerin through direct binding to the C-terminal region of progerin. […]

[2] = Plasma protein binding, rat; assay type: in vitro ADME
Method: (§1) At pre-set time-points, blood concentration of JH4 was determined by LC-MS/MS analysis[22],[23]. Other chemicals were also tested using similar protocol. In vitro ADME studies (plasma protein binding, CYP inhibition, microsomal stability, plasma stability, and hERG inhibition) were performed by New Drug Development Center (Daegu, Korea) using standard protocols[24],[25].

[3] = target: CYP2C19 (Homo sapiens, UniProt P33261); assay: CYP inhibition, CYP2C19; assay type: in vitro ADME
CYP2C19, sequence (P33261 whole entry): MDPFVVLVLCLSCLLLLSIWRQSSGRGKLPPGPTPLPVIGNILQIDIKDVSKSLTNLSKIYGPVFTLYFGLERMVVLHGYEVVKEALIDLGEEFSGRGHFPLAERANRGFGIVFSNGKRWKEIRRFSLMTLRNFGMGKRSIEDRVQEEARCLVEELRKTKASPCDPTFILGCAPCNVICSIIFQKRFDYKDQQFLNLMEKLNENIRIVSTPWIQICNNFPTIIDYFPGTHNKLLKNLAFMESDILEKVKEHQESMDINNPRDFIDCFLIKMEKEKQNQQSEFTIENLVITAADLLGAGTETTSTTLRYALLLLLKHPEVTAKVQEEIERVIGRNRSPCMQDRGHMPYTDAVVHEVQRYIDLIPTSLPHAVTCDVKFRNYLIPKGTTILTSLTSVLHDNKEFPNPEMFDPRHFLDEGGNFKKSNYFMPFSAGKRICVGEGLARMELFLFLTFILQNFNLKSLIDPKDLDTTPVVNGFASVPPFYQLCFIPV
Method: as §1, with “For PK analysis, 5 mg/kg of JH4 in 10% DMSO, 5% […] solution were intravenously injected and 10 mg/kg of JH4 in 10% NMP and 90% PEG400 solution were orally delivered. At” for “At”

[4] = tested on: HGPS patients; settings: trial without placebo; cited from earlier work

For CC1(C)Oc2cc3oc(=O)ccc3cc2C[C@@H]1OC/C=C/c1ccccc1 [SLC-D011], the body weight ([1]; after week 5) was 1.167 and 1.25 and 1.182 and 1, the body weight ([1]; after week 7) was 1.333 and 1.417 and 1.273 and 1.077 and the body weight ([1]; after week 8) was 1.5 and 1.25 and 1.273 and 1 and 1.462. For the same compound, the body weight ([1]; after week 9) was 1.417 and 1.25 and 1.273 and 1 and 1.385, the body weight ([1]; after week 10) was 1.333 and 1.167 and 1.182 and 1 and the body weight ([1]; after week 13) was 1.167 and 0.8333 and 1.091 and 0.8462. For the same compound, the body weight ([1]; after week 15) was 1 and 0.6667 and 0.9231, the body weight ([1]; after week 16) was 1 and 0.8182 and 0.8462 and the body weight ([1]; after week 17) was 0.8333 and 0.8182 and 0.7692. The body weight ([1]; column after week 4) was 1.083 and 1, the body weight ([1]; column after week 6) was 1.25 and 1.333 and 1.273 and 1.077 and the body weight ([1]; column after week 11) was 1.333 and 1.083 and 1.182 and 1. For the same compound, the body weight ([1]; column after week 12) was 1.25 and 0.9167 and 1.182 and 0.9231, the body weight ([1]; column after week 14) was 1.083 and 0.75 and 1.091 and 0.9231 and the body weight ([1]; column after week 18) was 0.8333 and 0.7692. The body weight ([1]; column after week 19) was 0.75, the body weight ([1]; week 5) was 1.167 and 1.091 and 1 and the body weight ([1]; week 6) was 1.167 and 1.333 and 1.273 and 1. The body weight ([1]; week 7) was 1.333 and 1.417 and 1.273 and 1, the body weight ([1]; week 8) was 1.417 and 1.273 and 1.077 and 1.385 and the body weight ([1]; week 10) was 1.417 and 1.167 and 1.273 and 1 and 1.385. The body weight ([1]; week 11) was 1.333 and 1.083 and 1.182 and 1.077, the body weight ([1]; week 12) was 1.25 and 1 and 1.182 and 0.9231 and the body weight ([1]; week 13) was 1.25 and 0.8333 and 1.182 and 0.9231. The body weight ([1]; week 15) was 1.083 and 0.75 and 1.091 and 0.8462, the body weight ([1]; week 16) was 1 and 0.8462 and the body weight ([1]; week 17) was 0.8333 and 0.8182 and 0.8462. For the same compound, the body weight ([1]; week 18) was 0.8333 and 0.7692, the body weight ([1]; week 19) was 0.8333 and the “Increase of body weight compared with untreated control” value ([1]; oral administration) was ~ 35%. The fraction unbound [2] was 0.002 and the CYP inhibition [3] was 28.8.

For NC(=O)N1CCC(CC(=O)N2CCC([C@H]3c4ncc(Br)cc4CCc4cc(Cl)cc(Br)c43)CC2)CC1 [lonafarnib, reference compound], the “Extension of life span” value [4] is listed as ~ 2 years.

Reference: publication PMC7782499, “Progerinin, an optimized progerin-lamin A binding inhibitor, ameliorates premature senescence phenotypes of Hutchinson-Gilford progeria syndrome” (Communications Biology, 2021)
